Laboratory results from the supplement of paper PMC10627819.

How the values were obtained:
S. aureus DSM 20231 = test: Bliss interaction score (quartile over a dose matrix) (fitness difference); higher = more antagonism (negative = synergy)
Method in brief: (§1)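 Values were capped at 1 after dividing OD595 at stationary-phase entry by the plate's robust no-drug mean. This ratio is fitness, and single-drug fitness was inferred from the combination data. The Bliss score is observed minus product-expected fitness, given as quartiles over technical, biological and donor/recipient replicates.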

S. pneumoniae D39V [1] = test: as above
Method in brief: as §1

B. subtilis 168 [2] = test: as above
Method in brief: as §1

S. aureus Newman [3] = test: as above
Method in brief: as §1

S. pneumoniae D39V [4] = test: fitness (endpoint OD595 vs no drug) (fraction); higher = more growth
Method in brief: (§2)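 In 384-well plates at 37 °C, cultures began at OD595 0.01 in 30 µl, with 55 µl used for S. pneumoniae. OD595 readings every 30 min for 14 h were corrected by the first reading. Fitness divides the stationary-phase transition optical density by the robust mean of no-drug control wells. The result is capped at 1.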

S. aureus Newman [5] = test: as above
Method in brief: as §2

B. subtilis 168 [6] = test: as above
Method in brief: as §2
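For Bliss interaction score (quartile over a dose matrix) in this document: first quartile when negative (synergy) and third quartile when positive (antagonism).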

C/C(=C\C(=O)OCCCCCCCCC(=O)O)C[C@@H]1OC[C@H](C[C@@H]2O[C@H]2[C@@H](C)[C@H](C)O)[C@@H](O)[C@H]1O [Pseudomonic acid] + CN[C@@H]1[C@H](O)[C@H](NC)[C@H]2O[C@@]3(O)C(=O)C[C@@H](C)O[C@H]3O[C@@H]2[C@H]1O [Spectinomycin]
Conditions | Bliss interaction score
B. subtilis 168 [2] | 0.0538
S. aureus DSM 20231 | -0.0116
S. aureus Newman [3] | -0.0301
S. pneumoniae D39V [1] | -0.0665

fitness, S. pneumoniae D39V [4]
Conditions | first compound 0.03 µg/mL | first compound 0.06 µg/mL | first compound 0.12 µg/mL
partner 4 µg/mL | 0.899 | 0.87 | 0.564
partner 8 µg/mL | 0.924 | 0.793 | 0.53
partner 16 µg/mL | 0.756 | 0.716 | 0.443

fitness, S. aureus Newman [5], one replicate
Conditions | first compound 0.0313 µg/mL | first compound 0.0625 µg/mL | first compound 0.125 µg/mL
partner 4 µg/mL | 0.0277 | 0.0288 | 0.0466
partner 8 µg/mL | 0.0165 | 0.0234 | 0.0364
partner 16 µg/mL | 0.0048 | 0.0214 | 0.0111

COc1c(N2C[C@@H]3CCCN[C@@H]3C2)c(F)cc2c(=O)c(C(=O)O)cn(C3CC3)c12 [Moxifloxacin] + CN(C)c1cc(NC(=O)CNC(C)(C)C)c(O)c2c1C[C@H]1C[C@H]3[C@H](N(C)C)C(O)=C(C(N)=O)C(=O)[C@@]3(O)C(O)=C1C2=O [Tigecycline]
Conditions | Bliss interaction score
B. subtilis 168 [2] | -0.0275
S. aureus DSM 20231 | -0.0652
S. aureus Newman [3] | -0.0557
S. pneumoniae D39V [1] | 0.0824

fitness
Conditions | partner 0.039 µg/mL | partner 0.078 µg/mL | partner 0.156 µg/mL | partner 0.65 µg/mL | partner 1.3 µg/mL | partner 2.6 µg/mL
B. subtilis 168 [6], first compound 0.0312 µg/mL | 0.0412 | 0.0391 | 0.0455 | – | – | –
B. subtilis 168 [6], first compound 0.0625 µg/mL | 0.0348 | 0.0627 | 0.0465 | – | – | –
B. subtilis 168 [6], first compound 0.125 µg/mL | 0.0497 | 0.0447 | 0.0454 | – | – | –
B. subtilis 168 [6], first compound 2 µg/mL | 0.0218 | 0.034 | 0.0374 | – | – | –
B. subtilis 168 [6], first compound 4 µg/mL | 0.0264 | 0.0295 | 0.0361 | – | – | –
B. subtilis 168 [6], first compound 8 µg/mL | 0.008 | 0.0149 | 0.0156 | – | – | –
S. aureus Newman [5], first compound 0.0075 µg/mL | 0.764 | 0.761 | 0.773 | – | – | –
S. aureus Newman [5], first compound 0.03 µg/mL | 0.0791 | 0.0794 | 0.113 | – | – | –
S. pneumoniae D39V [4], first compound 0.0037 µg/mL | – | – | – | 0.945 | 0.955 | 0.852
S. pneumoniae D39V [4], first compound 0.005 µg/mL | – | – | – | 0.931 | 0.929 | 0.909
S. pneumoniae D39V [4], first compound 0.0075 µg/mL | – | – | – | 0.937 | 0.94 | 0.905
S. pneumoniae D39V [4], first compound 0.01 µg/mL | – | – | – | 0.965 | 0.946 | 0.932
S. pneumoniae D39V [4], first compound 0.015 µg/mL | – | – | – | 0.932 | 0.929 | 0.901
S. pneumoniae D39V [4], first compound 0.02 µg/mL | – | – | – | 0.835 | 0.94 | 0.971

fitness, B. subtilis 168 [6], one replicate
Conditions | first compound 0.0312 µg/mL | first compound 0.0625 µg/mL | first compound 0.125 µg/mL
partner 0.125 µg/mL | 0.402 | 0.0347 | 0.0119
partner 0.25 µg/mL | 0.325 | 0.0048 | 0.0005
partner 0.5 µg/mL | 0.372 | 0.0104 | 0.0203

C/C(=C\C(=O)OCCCCCCCCC(=O)O)C[C@@H]1OC[C@H](C[C@@H]2O[C@H]2[C@@H](C)[C@H](C)O)[C@@H](O)[C@H]1O [Pseudomonic acid] + Cc1cc(NS(=O)(=O)c2ccc(N)cc2)no1 [Sulfamethoxazol]
Conditions | Bliss interaction score
B. subtilis 168 [2] | -0.0453
S. aureus DSM 20231 | -0.0246
S. aureus Newman [3] | -0.0317
S. pneumoniae D39V [1] | -0.0659

fitness, S. pneumoniae D39V [4]
Conditions | first compound 0.03 µg/mL | first compound 0.06 µg/mL | first compound 0.12 µg/mL
partner 1 µg/mL | 0.907 | 0.784 | –
partner 2 µg/mL | 0.896 | 0.776 | –
partner 4 µg/mL | 0.877 | 0.769 | 0.579

fitness, S. aureus Newman [5], one replicate
Conditions | first compound 0.0313 µg/mL | first compound 0.0625 µg/mL | first compound 0.125 µg/mL
partner 1 µg/mL | 0.0339 | 0.0352 | 0.0377
partner 2 µg/mL | 0.0298 | 0.0242 | 0.0254
partner 4 µg/mL | 0.0109 | 0.0216 | 0.0232

O=C(O[C@@H]1Cc2c(O)cc(O)cc2O[C@@H]1c1cc(O)c(O)c(O)c1)c1cc(O)c(O)c(O)c1 [EGCG] + C/C(=C\C(=O)OCCCCCCCCC(=O)O)C[C@@H]1OC[C@H](C[C@@H]2O[C@H]2[C@@H](C)[C@H](C)O)[C@@H](O)[C@H]1O [Pseudomonic acid]
Conditions | Bliss interaction score
B. subtilis 168 [2] | -0.06
S. aureus DSM 20231 | -0.014
S. aureus Newman [3] | 0.0163
S. pneumoniae D39V [1] | -0.0856

fitness, S. pneumoniae D39V [4]
Conditions | first compound 12.5 µg/mL | first compound 25 µg/mL | first compound 50 µg/mL
partner 0.03 µg/mL | 0.879 | 0.953 | 0.926
partner 0.06 µg/mL | 0.74 | 0.824 | –
partner 0.12 µg/mL | 0.494 | – | 0.545

fitness, S. aureus Newman [5], one replicate
Conditions | first compound 12.5 µg/mL | first compound 25 µg/mL | first compound 50 µg/mL
partner 0.0313 µg/mL | 0.0563 | 0.0468 | 0.0316
partner 0.0625 µg/mL | 0.0491 | 0.0391 | 0.0458
partner 0.125 µg/mL | 0.0477 | 0.0401 | 0.0275
